Data as given in the NIST ThermoML archive (doi:10.1016/j.jct.2016.12.023).
± gives the expanded uncertainty stated by the source.

Test: mn = molality of the nth substance listed, in mol/kg
Conditions: 298.15 K, 101.33 kPa, Liquid, Vibrating tube method

OC[C@H]1O[C@@H]2O[C@H]3[C@H](O)[C@@H](O)[C@@H](O[C@H]4[C@H](O)[C@@H](O)[C@@H](O[C@H]5[C@H](O)[C@@H](O)[C@@H](O[C@H]6[C@H](O)[C@@H](O)[C@@H](O[C@H]7[C@H](O)[C@@H](O)[C@@H](O[C@H]1[C@H](O)[C@H]2O)O[C@@H]7CO)O[C@@H]6CO)O[C@@H]5CO)O[C@@H]4CO)O[C@@H]3CO [α-cyclodextrin] + O
Conditions	mass density [kg/m3]
m1 = 0.00975	1000.6 ± 2
m1 = 0.01763	1003.4 ± 2
m1 = 0.02931	1007.6 ± 2.1
m1 = 0.03389	1009.2 ± 2.1
m1 = 0.04348	1012.5 ± 2.2
m1 = 0.05233	1015.6 ± 2.3
m1 = 0.06207	1018.9 ± 2.4
m1 = 0.07117	1022 ± 2.5
m1 = 0.0783	1024.4 ± 2.5
m1 = 0.09004	1028.3 ± 2.7
m1 = 0.09733	1031 ± 2
m1 = 0.09764	1030.7 ± 2
m1 = 0.09915	1031.6 ± 2
m1 = 0.09944	1031.7 ± 2
m1 = 0.1001	1031.6 ± 2
